Experimental data as given in patent publication US12497465B2, “Combination of antibody-drug conjugate and tubulin inhibitor” (priority 2018, dated 2025).
Counter-ions that a name gives are not always drawn. Like-named read-outs stand apart in the source and are kept apart here.

B1: antibody-drug conjugate (3): anti-CDH6 antibody (SEQ ID NO: 11 residues 20-471, SEQ ID NO: 12 residues 21-233) conjugated to exatecan-derivative drug-linker via a thioether bond (conjugate, chains of the INN, looked up)
VH: EVQLVQSGAEVKKPGASVKVSCKASGYTFTRNFMHWVRQAPGQGLEWMGWIYPGDGETEYAQKFQGRVTITADTSTSTAYMELSSLRSEDTAVYYCARGVYGGFAGGYFDFWGQGTLVTVSS
VL: DIQMTQSPSSLSASVGDRVTITCKASQNIYKNLAWYQQKPGKAPKLLIYDANTLQTGVPSRFSGSGSGSDFTLTISSLQPEDFATYFCQQYYSGWAFGQGTKVEIK
modifications: exatecan-derivative drug-linker (deruxtecan)

Columns and labels:
[1] = test system: Human breast cancer cell line KPL-4; assay: Antitumor study (1): subcutaneously transplanted KPL-4 cells in nude mice; format: in vivo; conditions: KPL-4 xenograft, BALB/c nude mice, last day of the study; ADC (1) […] iv Day 0; paclitaxel 15 mg/kg iv Day 0, 7; eribulin mesylate 0.8 mg/kg iv Day 0, 4
Excerpt: The calculation formula is as shown below.
Human breast cancer cell line KPL-4, which was obtained from Dr. Junichi Kurebayashi in Kawasaki Medical School [British Journal of Cancer, (1999) 79 (5/6).

[2] = test system: Human breast cancer cell line JIMT-1; assay: Antitumor study (2): subcutaneously transplanted JIMT-1 cells in nude mice; format: in vivo; conditions: JIMT-1 xenograft, ADC (1) 10 mg/kg iv Day 0, paclitaxel 15 mg/kg iv Day 0, 7, 14, eribulin mesylate 0.8 mg/kg iv Day 0, 3
Experimental: (§1) Measurement and calculation formula: In all studies, the major axis and minor axis of tumors were measured twice a week with an electronic digital caliper (CD15-CX, Mitutoyo Corp.), and the tumor volume (mm^3) was calculated. The calculation formula is as shown below. Tumor volume(mm^3)=½×Major axis(mm)×[Minor axis (mm)]^2
(§2) Paclitaxel was dissolved with cremophor and ethanol (1:1), diluted with physiological saline, and then intravenously administered to the tail vein in a fluid volume of 10 or 20 mL/kg. Eribulin mesylate was diluted with physiological saline, and intravenously administered to the tail vein in a fluid volume of 10 mL/kg.
Human breast cancer cell line JIMT-1, which was purchased from DSMZ (Deutsche Sammlung von Mikroorganismen und Zellkulturen GmbH), was suspended into physiological saline, subcutaneously transplanted at 5×10^6 cells into the right side of female nude mice, and the mice were randomly grouped 13 days after the transplantation (Day 0). […] Paclitaxel was intravenously administered to the tail vein at a dose of 15 mg/kg on Day 0, Day 7 and Day 14. Eribulin mesylate was intravenously administered to the tail vein at a dose of 0.8 mg/kg on Day 0 and Day 3. Single administration groups of each drug, a combined administration group, and a solvent administration group as a control group were set up.

[3] = test system: Human gastric cancer cell line NCI-N87; assay: Antitumor study (3): subcutaneously transplanted NCI-N87 cells in nude mice; format: in vivo; conditions: NCI-N87 xenograft, ADC (1) 1 mg/kg iv Day 0, paclitaxel 15 mg/kg iv Day 0, 7, eribulin mesylate 0.4 mg/kg iv Day 0, 4
Experimental: as §1, §2
Human gastric cancer cell line NCI-N87, which was purchased from ATCC (American Type Culture Collection), was suspended into physiological saline, subcutaneously transplanted at 1×10^7 cells into the right side of female nude mice, and the mice were randomly grouped 6 days after the transplantation (Day 0). […] Paclitaxel was intravenously administered to the tail vein at a dose of 15 mg/kg on Day 0 and Day 7. Eribulin mesylate was intravenously administered to the tail vein at a dose of 0.4 mg/kg on Day 0 and Day 4. Single administration groups of each drug, a combined administration group, and a solvent administration group as a control group were set up.

[4] = test system: Human breast cancer cell line JIMT-1; conditions: JIMT-1 xenograft, nude mice; ADC (2) 10 mg/kg iv Day 0, 7, 14; paclitaxel 15 mg/kg iv Day 0, 7
Experimental: as §1
(§3) Paclitaxel was dissolved with cremophor and ethanol (1:1), diluted with physiological saline, and then intravenously administered to the tail vein in a fluid volume of 10 or 20 mL/kg.
Human breast cancer cell line JIMT-1, which was purchased from DSMZ, was suspended into physiological saline, subcutaneously transplanted at 5×10^6 cells into the right side of female nude mice, and the mice were randomly grouped 10 days after the transplantation (Day 0). […] Paclitaxel was intravenously administered to the tail vein at a dose of 15 mg/kg on Day 0 and Day 7. Single administration groups of each drug, a combined administration group, and a solvent administration group as a control group were set up.

[5] = test system: Human gastric cancer cell line SNU-1; assay: Antitumor study (5): subcutaneously transplanted SNU-1 cells in nude mice; conditions: SNU-1 xenograft, ADC (1) 10 mg/kg iv Day 0, paclitaxel 15 mg/kg iv Day 0, 7
Experimental: as §1, §3
Human gastric cancer cell line SNU-1, which was purchased from ATCC, was suspended into Matrigel, subcutaneously transplanted at 1×10^7 cells into the right side of female nude mice, and the mice were randomly grouped 28 days after the transplantation (Day 0). […] Paclitaxel was intravenously administered to the tail vein at a dose of 15 mg/kg on Day 0 and Day 7. Single administration groups of each drug, a combined administration group, and a solvent administration group as a control group were set up.

[6] = test system: Human ovarian cancer cell line OV-90; assay: Antitumor study (8): subcutaneously transplanted OV-90 cells in nude mice; conditions: OV-90 xenograft, Day 17, ADC (3) 10 mg/kg iv Day 0, paclitaxel 15 mg/kg iv Day 0, 7, 14
Experimental: as §1, §3
Human ovarian cancer cell line OV-90, which was purchased from ATCC, was suspended into Matrigel, subcutaneously transplanted at 2.5×10^6 cells into the right side of female nude mice, and the mice were randomly grouped 15 days after the transplantation (Day 0). […] Paclitaxel was intravenously administered to the tail vein at a dose of 15 mg/kg on Day 0, Day 7, and Day 14. Single administration groups of each drug, a combined administration group, and a solvent administration group as a control group were set up.

[7] = test system: Human lung cancer cell line NCI-H441; assay: Antitumor study (6): subcutaneously transplanted NCI-H441 cells in nude mice; conditions: NCI-H441 xenograft, ADC (1) 10 mg/kg iv Day 0, paclitaxel 15 mg/kg iv Day 0, 7
Experimental: as §1, §3
Human lung cancer cell line NCI-H441, which was purchased from ATCC, was suspended into Matrigel, subcutaneously transplanted at 5×10^6 cells into the right side of female nude mice, and the mice were randomly grouped 7 days after the transplantation (Day 0). […] Paclitaxel was intravenously administered to the tail vein at a dose of 15 mg/kg on Day 0 and Day 7. Single administration groups of each drug, a combined administration group, and a solvent administration group as a control group were set up.

[8] = test system: Human breast cancer cell line MDA-MB-453; assay: Antitumor study (4): subcutaneously transplanted MDA-MB-453 cells in nude mice; conditions: MDA-MB-453 xenograft, ADC (1) 0.5 mg/kg iv Day 0, paclitaxel 15 mg/kg iv Day 0, 7
Experimental: as §3
Human breast cancer cell line MDA-MB-453, which was purchased from ATCC, was suspended into Matrigel basal membrane matrix (Matrigel), subcutaneously transplanted at 1×10^7 cells into the right side of female nude mice, and the mice were randomly grouped 7 days after the transplantation (Day 0). […] Paclitaxel was intravenously administered to the tail vein at a dose of 15 mg/kg on Day 0 and Day 7. Single administration groups of each drug, a combined administration group, and a solvent administration group as a control group were set up.

| Molecule | tumor growth inhibition (TGI) [1] [%] | TGI [2] [%] | TGI [3] [%] | TGI [4] [%] | TGI [5] [%] | TGI [6] [%] | TGI [7] [%] | TGI [8] [%] |
| --- | --- | --- | --- | --- | --- | --- | --- | --- |
| CC(=O)O[C@H]1C(=O)[C@@]2(C)[C@H]([C@H](OC(=O)c3ccccc3)[C@]3(O)C[C@H](OC(=O)[C@H](O)[C@@H](NC(=O)c4ccccc4)c4ccccc4)C(C)=C1C3(C)C)[C@]1(OC(C)=O)CO[C@@H]1C[C@@H]2O [paclitaxel] | 48 | 30 | 50 | 36 | 58 | 80 | 55 | 96 |
| C=C1C[C@@H]2CC[C@@]34C[C@H]5O[C@H]6[C@@H](O3)[C@H]3O[C@H](CC[C@@H]3O[C@H]6[C@H]5O4)CC(=O)C[C@@H]3[C@@H](OC)[C@@H](C[C@H](O)CN)O[C@H]3C[C@H]3O[C@@H](CC[C@@H]1O2)C[C@@H](C)C3=C [eribulin mesylate] | 91 | 73 | 64 |  |  |  |  |  |
| antibody-drug conjugate (2): anti-HER3 antibody (SEQ ID NO: 3 and 4) conjugated to exatecan-derivative drug-linker via a thioether bond |  |  |  | 69 |  |  |  |  |
| B1 |  |  |  |  |  | 97 |  |  |
